Measurements: US8354394B2, “Diuretics” (Merck Sharp & Dohme Corp., priority 2009, dated 2013)

System: beagle dogs
Assay: canine telemetry protocol for blood pressure reduction efficacy
Type: in vivo
Conditions: male beagle dogs, 3 mg/kg oral gavage
Protocol: Compounds of the invention were evaluated for blood pressure reduction efficacy using the following canine telemetry protocol.
Male beagle dogs (approximately 1-3 years old) with a body weight of between 10 and 16 kg were surgically implanted with DSI radiotelemetry devices (model: TL11M2-D70-PCT). Briefly, under an inhalant anesthesia, isoflurane/oxygen mixture (1-3.5%/to effect), the body of the telemetry device was positioned and secured intra-abdominally. Subsequently, the arterial catheter of the telemetry device was passed subcutaneously to the inguinal area and introduced into the femoral artery and advanced to the level of the descending aorta. The catheter was secured with 2-0 silk ligatures. The muscle and underlying fascia was closed over the catheter using absorbable suture and the skin was closed using non-absorbable suture. The animals were allowed a minimum recovery period of 2 weeks between surgery and the evaluation of test compounds.
Compound evaluation consisted of a 3 day paradigm at a 3 mg/kg dose. On the first day, no compounds were administered during a 24 hour period of baseline data collection. Blood pressure and heart rate data were collected continuously for one minute periods at 10 minute intervals. On the days of compound administration half the animals received test article with the other half receiving the vehicle used for compound formulation. All test materials were administered by oral gavage in a volume of 1 mL/kg. Data are expressed either as raw values (mm Hg or beats per minute) or as the change from baseline (average value for about 12 hours in low activity period prior to dosing). Change is SBP (systolic blood pressure) and PP (pulse pressure) over time is shown below: […]

For `Cc1ncc2c(c1OC(=O)CCC(C)CO/N=[N+](\[O-])N(C)C(C)(C)C)CO[C@H]2c1ccc(Cl)cc1` (stereo partly drawn) [Example 13, (3S)-3-(4-Chlorophenyl)-6-methyl-1,3-dihydrofuro[3,4-c]pyridin-7-yl 5-({[(1Z)-2-tert-butyl-2-methyl-1-oxido-1λ^5-diazan-1-ylidene]amino}oxy)-4-methylpentanoate], the “ΔPP (pulse pressure, change from baseline) 1-6 h” value was −22 mm Hg, the “ΔSBP (systolic blood pressure, change from baseline) 1-6 h” value was −30 mm Hg and the “ΔPP (pulse pressure, change from baseline) 6-12 h” value was −11 mm Hg. The “ΔSBP (systolic blood pressure, change from baseline) 6-12 h” value was −15 mm Hg, the “ΔPP (pulse pressure, change from baseline) 12-18 h” value was −6 mm Hg and the “ΔSBP (systolic blood pressure, change from baseline) 12-18 h” value was −4 mm Hg.
With `Cc1ncc2c(c1OC(=O)O[C@@H](C)CCCCO/N=[N+](\[O-])N(C)C(C)(C)C)CO[C@H]2c1ccc(Cl)cc1` [Example 25, (2S)-6-({[(1Z)-2-tert-butyl-2-methyl-1-oxido-1λ^5-diazan-1-ylidene]amino}oxy)hexan-2-yl (3 S) 3-(4-chlorophenyl)-6-methyl-1,3-dihydrofuro[3,4-c]pyridin-7-yl carbonate] the “ΔPP (pulse pressure, change from baseline) 1-6 h” value was −12 mm Hg, the “ΔSBP (systolic blood pressure, change from baseline) 1-6 h” value was −14 mm Hg and the “ΔPP (pulse pressure, change from baseline) 6-12 h” value was −7 mm Hg. The “ΔSBP (systolic blood pressure, change from baseline) 6-12 h” value was −7 mm Hg, the “ΔPP (pulse pressure, change from baseline) 12-18 h” value was −4 mm Hg and the “ΔSBP (systolic blood pressure, change from baseline) 12-18 h” value was 0 mm Hg.
With `Cc1ncc2c(c1OC(=O)CCCCO/N=[N+](\[O-])N(C)C(C)(C)C)CO[C@H]2c1ccc(Cl)cc1` [Example 8, (3S)-3-(4-Chlorophenyl)-6-methyl-1,3-dihydrofuro[3,4-c]pyridin-7-yl 5-({[(1Z)-2-tert-butyl-2-methyl-1-oxido-1λ^5-diazan-1-ylidene]amino}oxy)pentanoate] the “ΔPP (pulse pressure, change from baseline) 1-6 h” value was −12 mm Hg, the “ΔSBP (systolic blood pressure, change from baseline) 1-6 h” value was −15 mm Hg and the “ΔPP (pulse pressure, change from baseline) 6-12 h” value was −8 mm Hg. For the same compound, the “ΔSBP (systolic blood pressure, change from baseline) 6-12 h” value was −12 mm Hg, the “ΔPP (pulse pressure, change from baseline) 12-18 h” value was −4 mm Hg and the “ΔSBP (systolic blood pressure, change from baseline) 12-18 h” value was −2 mm Hg.
For `Cc1ncc2c(c1OC(=O)CCCC(C)O/N=[N+](\[O-])N(C)C(C)(C)C)CO[C@H]2c1ccc(Cl)cc1` (stereo partly drawn) [Example 14, (3S)-3-(4-Chlorophenyl)-6-methyl-1,3-dihydrofuro[3,4-c]pyridin-7-yl 5-({[(1Z)-2-tert-butyl-2-methyl-1-oxido-1λ^5-diazan-1-ylidene]amino}oxy)hexanoate], the “ΔPP (pulse pressure, change from baseline) 1-6 h” value was −18 mm Hg, the “ΔSBP (systolic blood pressure, change from baseline) 1-6 h” value was −21 mm Hg and the “ΔPP (pulse pressure, change from baseline) 6-12 h” value was −9 mm Hg. For the same compound, the “ΔSBP (systolic blood pressure, change from baseline) 6-12 h” value was −8 mm Hg, the “ΔPP (pulse pressure, change from baseline) 12-18 h” value was −3 mm Hg and the “ΔSBP (systolic blood pressure, change from baseline) 12-18 h” value was 3 mm Hg.
With `Cc1ncc2c(c1OC(=O)[C@H]1CC[C@H](O/N=[N+](\[O-])N(C)C(C)(C)C)CC1)CO[C@H]2c1ccc(Cl)cc1` [Example 6, (3S)-3-(4-Chlorophenyl)-6-methyl-1,3-dihydrofuro[3,4-c]pyridin-7-yl trans-4-({[(1Z)-2-tert-butyl-2-methyl-1-oxidohydrazono]amino}oxy)cyclohexanecarboxylate] the “ΔPP (pulse pressure, change from baseline) 1-6 h” value was −16 mm Hg, the “ΔSBP (systolic blood pressure, change from baseline) 1-6 h” value was −16 mm Hg and the “ΔPP (pulse pressure, change from baseline) 6-12 h” value was −7 mm Hg. The “ΔSBP (systolic blood pressure, change from baseline) 6-12 h” value was −6 mm Hg, the “ΔPP (pulse pressure, change from baseline) 12-18 h” value was −3 mm Hg and the “ΔSBP (systolic blood pressure, change from baseline) 12-18 h” value was −1 mm Hg.
With `Cc1ncc2c(c1OC(=O)[C@H]1CC[C@@H](O/N=[N+](\[O-])N(C)C(C)(C)C)CC1)CO[C@H]2c1ccc(Cl)cc1` [Example 5, (3S)-3-(4-Chlorophenyl)-6-methyl-1,3-dihydrofuro[3,4-c]pyridin-7-yl cis-4-({[(1Z)-2-tert-butyl-2-methyl-1-oxidohydrazono]amino}oxy)cyclohexanecarboxylate] the “ΔPP (pulse pressure, change from baseline) 1-6 h” value was −10 mm Hg, the “ΔSBP (systolic blood pressure, change from baseline) 1-6 h” value was −11 mm Hg and the “ΔPP (pulse pressure, change from baseline) 6-12 h” value was −3 mm Hg. The “ΔSBP (systolic blood pressure, change from baseline) 6-12 h” value was −2 mm Hg, the “ΔPP (pulse pressure, change from baseline) 12-18 h” value was 1 mm Hg and the “ΔSBP (systolic blood pressure, change from baseline) 12-18 h” value was 2 mm Hg.
